Assay results reported in US10111435B2, “Herbicidal compositions containing N-(1,3,4-oxadiazol-2-yl)-aryl carboxylic acid amides” (BAYER CROPSCIENCE AKTIENGESELLSCHAFT, priority 2013, dated 2018).

Legend:
Assay type in all cases: in vivo
Eleusine indica (ELEIN) = test: greenhouse post-emergence herbicidal efficacy against ELEIN; conditions: for pest or weed control at 10 g/ha: 10 g of a.i./ha; for pest or weed control at 40 g/ha: 40 g of a.i./ha
Description: (§1) All trials whose results are shown were conducted in a greenhouse by the methodology specified below. The effect of the inventive herbicidal compositions was examined on the following harmful plants 14 and 21 days after application:
(§2) Echinochloa crus-galli (ECHCG), Eleusine indica (ELEIN), Setaria viridis (SETVI), Amaranthus retroflexus (AMARE), Chenopodium album (CHEAL), Kochia scoparia (KCHSC), Solanum nigrum (SOLNI), Avena fatua (AVEFA), Bromus sterilis (BROST), Lolium multiflorum (LOLMU), Phalaris minor (PHAMI), Poa annua (POAAN), Galium aparine (GALAP), Matricaria inodora (MATIN) and Polygonum convolvulus (POLCO).
(§3) The harmful plant seeds were sown in pots (diameter 8 cm) with sandy loam soil and germinated under optimal conditions. The inventive herbicidal compositions or the active ingredients alone were applied post-emergence to the planted pots with a spray volume of 300 L/ha. The trial was conducted in a greenhouse under optimum growth conditions. The herbicidal effects were assessed visually by comparison of untreated and treated plants. The percentages mean: 0%=no effects, 100%=the plants die off completely). The percentages are used to calculate interactions between individual treatments and combination treatments according to S. R. Colby, Weeds 15, pages 20 to 22 (1967).
(§4) The abbreviations mean: • a.i.=active ingredient • E^C=expected value according to Colby (E^C=A+B−A×B/100) • Diff: =difference (%) of measured value from expected value (%) (measured value minus expected value)
(§5) Assessment: • measured value E is greater than E^C:->synergism (+ diff.) • measured value E equals E^C:->additive effect • measured value E is smaller than E^C:->antagonism(− diff.)

Setaria viridis (SETVI) = test: greenhouse post-emergence herbicidal efficacy against SETVI
Description: as §1, §2, §3, §4, §5

[1] = system: Amaranthus retroflexus (AMARE); test: greenhouse post-emergence herbicidal efficacy against AMARE
Description: as §1, §2, §3, §4, §5

DIGSA = test: greenhouse post-emergence herbicidal efficacy against DIGSA
Description: as §1, §3, §4, §5

[2] = system: Chenopodium album (CHEAL); test: greenhouse post-emergence herbicidal efficacy against CHEAL
Description: as §1, §2, §3, §4, §5

Kochia scoparia (KCHSC) = test: greenhouse post-emergence herbicidal efficacy against KCHSC
Description: as §1, §2, §3, §4, §5

[3] = system: Echinochloa crus-galli (ECHCG); test: greenhouse post-emergence herbicidal efficacy against ECHCG
Description: as §1, §2, §3, §4, §5

Solanum nigrum (SOLNI) = test: greenhouse post-emergence herbicidal efficacy against SOLNI; conditions: 21 days after application
Description: as §1, §2, §3, §4, §5

[4] = Eleusine indica, post-emergence, 336 h, 14 days after application
[5] = Eleusine indica, post-emergence, 504 h, 21 days after application
[6] = 14 days after application, 40 g of a.i./ha
[7] = 14 days after application, 10 g of a.i./ha
[8] = 21 days after application, 40 g of a.i./ha
[9] = 14 days after application, 1 g of a.i./ha
[10] = 14 days after application, 4 g of a.i./ha
[11] = 21 days after application, 4 g of a.i./ha
[12] = 21 days after application, 1 g of a.i./ha
[13] = 21 days after application, 0.5 g of a.i./ha
[14] = 21 days after application, 2 g of a.i./ha
[15] = 21 days after application, 0.25 g of a.i./ha

Compound: COc1c(Cl)ccc(Cl)c1C(=O)O [dicamba]
- pest or weed control at 10 g/ha (Eleusine indica (ELEIN); [4]): 10%
- pest or weed control at 40 g/ha (Eleusine indica (ELEIN); [4]): 10%
- pest or weed control at 10 g/ha (Eleusine indica (ELEIN); [5]): 0%
- pest or weed control at 40 g/ha (Eleusine indica (ELEIN); [5]): 0%
- Efficacy (Setaria viridis (SETVI); [6]): 0%
- Efficacy (Setaria viridis (SETVI); [7]): 0%
- Efficacy (Setaria viridis (SETVI); 21 days after application, 10 g of a.i./ha): 0%
- Efficacy (Setaria viridis (SETVI); [8]): 0%
- Efficacy [1, 6]: 65%
- Efficacy [1, 8]: 65%
- Efficacy (DIGSA; [6]): 0%
- Efficacy (DIGSA; [8]): 0%
- Efficacy [2, 7]: 50%

Compound: COc1cc(OC)nc(NC(=O)NS(=O)(=O)c2cc(NC=O)ccc2C(=O)N(C)C)n1 [foramsulfuron]
- pest or weed control at 1 g/ha (Eleusine indica (ELEIN); Eleusine indica, post-emergence, 504 h, 21 days after application, 1 g of a.i./ha): 60%
- Efficacy (Kochia scoparia (KCHSC); [9]): 80%
- Efficacy (Kochia scoparia (KCHSC); [10]): 90%
- Efficacy (Kochia scoparia (KCHSC); [11]): 80%
- Efficacy (Setaria viridis (SETVI); [9]): 40%
- Efficacy (Setaria viridis (SETVI); [11]): 50%
- Efficacy (Setaria viridis (SETVI); [12]): 20%
- Efficacy (DIGSA; [10]): 40%
- Efficacy [2, 9]: 50%
- Efficacy [3, 9]: 60%
- Efficacy [3, 12]: 30%

Compound: COc1c(Cl)ccc(-c2cc(N)c(Cl)c(C(=O)O)n2)c1F [halauxifen]
- Efficacy (Solanum nigrum (SOLNI); 0.5 g of a.i./ha): 50%
- Efficacy (Eleusine indica (ELEIN); [13]): 0%
- Efficacy (Eleusine indica (ELEIN); [14]): 0%
- Efficacy (Kochia scoparia (KCHSC); [13]): 20%
- Efficacy (Kochia scoparia (KCHSC); [14]): 30%
- Efficacy (Setaria viridis (SETVI); [14]): 0%
- Efficacy ([3]; 14 days after application, 0.5 g of a.i./ha): 0%
- Efficacy ([3]; 14 days after application, 2 g of a.i./ha): 10%
- Efficacy [3, 14]: 20%

Compound: COC(=O)c1csc(C)c1S(=O)(=O)NC(=O)n1nc(OC)n(C)c1=O [thiencarbazone-methyl]
- Efficacy (Solanum nigrum (SOLNI); 1 g of a.i./ha): 50%
- Efficacy [1, 15]: 60%
- Efficacy [2, 15]: 50%
- Efficacy [2, 12]: 70%
